Measured values taken from US20050064382A1, “Method of prevention of lysosomal leakage in eukaryotic cells by using 6-methyluracil based water-soluble compounds and method of producing thereof” (priority 2002, published 2005).

Key:
[1] = system: Drosophila; test: X-ray caused loss of X-chromosomes in late oocyte of Drosophila; assay type: in vivo; settings: 1000 Roentgens
[2] = system: THP-1 cells; test: Long-term growth of THP-1 cells without change of medium (starvation); assay type: cell-based, human
[3] = system: Human umbilical cord vein endothelial cells (HUCVEC); test: HUCVEC Assays 2 and 3: starvation; assay type: cell-based; settings: 11 days without change of medium
Method: Glucural was also tested on two primer cell cultures for protection against cell death in sub-optimal conditions.
Human umbilical cord vein endothelial cells (HUCVEC) were isolated from freshly obtained human umbilical cords in accordance with known methods. HUCVEC were grown in multi-well plates. After saturation of the wells, the assays were initiated. Four wells were used for each experimental group. To cause “mechanical” damage, a higher (2-2½ times) centrifugal speed was used to pick up cells after trypsin treatment. To cause enzymatic damage, full-strength trypsin solution was used instead of the recommended diluted concentration. All assays were started from the last change of medium in wells with saturated cell culture (well bottoms were covered completely by cells). Results were estimated from the percentage of the bottom covered by cells on the last day of the assay.
Assay 2 and 3. Starvation—cell growth without change of medium during 11 days. Assays 2 and 3 were performed using two different HUCVEC isolations.

[4] = system: mice; test: Toxicity LD50; assay type: in vivo
[5] = system: MEL cells; test: Cell recovery after short-term and long-term storage at −135° C.; assay type: cell-based, mouse; settings: for numbers of cells per ml, Short-Term Storage: 3 days at −135° C.; for numbers of cells per ml, Long-Term Storage: six weeks at −135° C.
Method: The cells were then brought to −135° C. over a two-hour period, and stored at this temperature for 3 days (short term) or six weeks (long term). The cells were then thawed quickly by incubation at 37° C., washed twice with growing medium, re-suspended in 5 ml and incubated at 37° C. for 24 hours. The numbers of cells per ml. is x 10^4, two different assays. […]

Question: How did the “Frequency of the loss of X-chromosomes, %” value (“Frequency of the loss … %” for short) ([1]; 1.0 mkg/female) turn out when “complex of 2,4-dihydroxy-6-methylpyrimidine with N-methyl-D-glucamine [Glucural]” was run?
Answer: 1.7 ± 0.21%

Question: What about the “Frequency of the loss … %” value ([1]; 2.0 mkg/female) of the same substance?
Answer: 1.1 ± 0.20%

Question: And the “Frequency of the loss … %” value ([1]; 2.5 mkg/female)?
Answer: 0.9 ± 0.18%

Question: What about the “Frequency of the loss … %” value ([1]; 5.0 mkg/female) of the same substance?
Answer: 0.7 ± 0.14%

Question: What about the “Frequency of the loss … %” value ([1]; 10.0 mkg/female) of the same substance?
Answer: 1.2 ± 0.19%

Question: What about the “percentage of dead cells (trypan blue test)” value (“percentage of dead cells” below) ([2]; Glucural 10 mkg/ml, 3 days of growing) of the same substance?
Answer: 2.1 ± 0.5%

Question: What about the “percentage of dead cells” value ([2]; Glucural 10 mkg/ml, 4 days of growing) of the same substance?
Answer: 7.2 ± 1.3%

Question: What about the “percentage of dead cells” value ([2]; Glucural 10 mkg/ml, 10 days of growing) of the same substance?
Answer: 10.7 ± 0.2%

Question: And the “percentage of dead cells” value ([2]; Glucural 10 mkg/ml, 14 days of growing)?
Answer: 15.3 ± 0.2%

Question: And the “percentage of dead cells” value ([2]; Glucural 20 mkg/ml, 3 days of growing)?
Answer: 5.5 ± 0.25%

Question: And the “percentage of dead cells” value ([2]; Glucural 20 mkg/ml, 4 days of growing)?
Answer: 0%

Question: And the “percentage of dead cells” value ([2]; Glucural 20 mkg/ml, 10 days of growing)?
Answer: 10.85 ± 0.35%

Question: And the “percentage of dead cells” value ([2]; Glucural 20 mkg/ml, 14 days of growing)?
Answer: 15.3 ± 0.5%

Question: And the “Percent of well-bottoms covered by cells” value ([3]; Assay 2, Glucural 300 mkg/ml)?
Answer: 70-80%

Question: And the “Percent of well-bottoms covered by cells” value ([3]; Assay 2, Glucural 400 mkg/ml)?
Answer: 80-90%

Question: And the “Percent of well-bottoms covered by cells” value ([3]; Assay 2, Glucural 500 mkg/ml)?
Answer: 80-90%

Question: And the “Percent of well-bottoms covered by cells” value ([3]; Assay 3, Glucural 300 mkg/ml)?
Answer: 100%

Question: And the “Percent of well-bottoms covered by cells” value ([3]; Assay 3, Glucural 400 mkg/ml)?
Answer: 100%

Question: What about the “Percent of well-bottoms covered by cells” value ([3]; Assay 3, Glucural 500 mkg/ml) of the same substance?
Answer: 100%

Question: And the “LD50 equivalent for a 50-kg person” value ([4]; extrapolated from mice)?
Answer: 100 g

Question: What about the LD50 ([4]; mice) of the same substance?
Answer: about 2 g/kg

Question: What about the “effect during short-term storage” value [5] of the same substance?
Answer: little or no effect

Question: What about the “numbers of cells per ml, Short-Term Storage” value ([5]; Glucural 10 mkg/ml) of the same substance?
Answer: 34 ± 4 x 10^4

Question: And the “numbers of cells per ml, Long-Term Storage” value ([5]; Glucural 10 mkg/ml)?
Answer: 122 ± 8 x 10^4

Question: What about the “numbers of cells per ml, Short-Term Storage” value ([5]; Glucural 25 mkg/ml) of the same substance?
Answer: 38 ± 2 x 10^4

Question: What about the “numbers of cells per ml, Long-Term Storage” value ([5]; Glucural 25 mkg/ml) of the same substance?
Answer: 167 ± 3 x 10^4

Question: What about the “numbers of cells per ml, Short-Term Storage” value ([5]; Glucural 50 mkg/ml) of the same substance?
Answer: 33 ± 2 x 10^4

Question: And the “numbers of cells per ml, Long-Term Storage” value ([5]; Glucural 50 mkg/ml)?
Answer: 200 ± 12 x 10^4

Question: And the “numbers of cells per ml, Short-Term Storage” value ([5]; Glucural 100 mkg/ml)?
Answer: 37 ± 2 x 10^4

Question: And the “numbers of cells per ml, Long-Term Storage” value ([5]; Glucural 100 mkg/ml)?
Answer: 169 ± 15 x 10^4

Question: And the “numbers of cells per ml, Short-Term Storage” value ([5]; Glucural 200 mkg/ml)?
Answer: 56 ± 5 x 10^4

Question: And the “numbers of cells per ml, Long-Term Storage” value ([5]; Glucural 200 mkg/ml)?
Answer: 155 ± 14 x 10^4

Question: What about the “increase of cell survival rates during long-term storage” value ([5]; optimal concentration of about 50 mkg/ml) of the same substance?
Answer: over 3 times
